Laboratory results published in patent US11814364B2, “Pyridine N-oxide derivatives useful as factor XIa inhibitors” (Janssen Pharmaceutica NV, priority 2021, dated 2023).

What follows are molecules tested against human plasma kallikrein (Homo sapiens, UniProt P03952) (assay: Kallikrein inhibition FLINT assay with quenched AMC peptide substrate Z-Gly-Pro-Arg-AMC (end point EP or kinetic KIN reads)). Conditions: kinetic reads at 5 min intervals over 30 min; read-out: Kallikrein (KIN) IC50.
Assay type: biochemical
Method in brief: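 Enzyme and compound were preincubated 30 min before adding 50 μM AMC substrate in pH 7.5 Tris/NaCl/CaCl2/BSA/CHAPS buffer. AMC release was read at 30 min endpoint or every 5 min.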

human plasma kallikrein, sequence (P03952 391-638 limits assumed): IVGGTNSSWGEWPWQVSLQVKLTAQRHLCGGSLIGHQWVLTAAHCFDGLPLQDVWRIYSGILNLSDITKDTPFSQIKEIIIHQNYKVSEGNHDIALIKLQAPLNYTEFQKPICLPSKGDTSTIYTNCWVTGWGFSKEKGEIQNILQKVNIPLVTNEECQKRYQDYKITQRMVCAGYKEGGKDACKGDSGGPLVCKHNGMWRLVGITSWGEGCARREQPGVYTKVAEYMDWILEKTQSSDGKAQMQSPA
human plasma kallikrein, sequence (P03952 20-390 partner limits assumed): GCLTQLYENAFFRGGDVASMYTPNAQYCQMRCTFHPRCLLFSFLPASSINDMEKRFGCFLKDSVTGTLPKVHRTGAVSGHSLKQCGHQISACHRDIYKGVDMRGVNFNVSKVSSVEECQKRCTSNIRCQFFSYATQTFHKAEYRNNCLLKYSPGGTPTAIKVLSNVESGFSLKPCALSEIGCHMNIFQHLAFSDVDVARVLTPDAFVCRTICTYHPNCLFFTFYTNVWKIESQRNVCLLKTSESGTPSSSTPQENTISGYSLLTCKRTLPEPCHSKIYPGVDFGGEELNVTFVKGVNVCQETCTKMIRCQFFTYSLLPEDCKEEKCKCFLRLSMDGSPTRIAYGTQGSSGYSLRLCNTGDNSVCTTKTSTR

Point of comparison: `Cn1ccc(CC(c2ccc(-c3c(C(F)F)ccc(Cl)c3F)c[n+]2[O-])n2cc(-c3ccc(C(=O)O)cc3)cn2)n1` (stereo not shown) [Example Q49], IC50 2.3 nM. Against it:
- [O-][n+]1cc(-c2c(-n3cnnn3)ccc(Cl)c2F)ccc1C(Cn1cc(F)cn1)n1cc(-c2ccnc(C(F)(F)F)c2)cn1 (stereo not shown) [Example P333] — 7.5-fold higher, 17.2 nM
- CC(=O)N(C)CC(c1ccc(-c2c(-n3cnnn3)ccc(Cl)c2F)c[n+]1[O-])n1cc(-c2ccncc2)cn1 (stereo not shown) [Example P302] — 24-fold higher, 54.6 nM
- Nc1ccc(-c2cnn(C(Cn3cc(F)cn3)c3ccc(-c4c(-n5cnnn5)ccc(Cl)c4F)c[n+]3[O-])c2)c(F)n1 (single isomer, unassigned) [Example P417] — 34-fold higher, 77.1 nM
- COc1cc(C(Cc2ccccc2)n2cc(-c3ccc(C(=O)O)cc3)cn2)[n+]([O-])cc1-c1c(OCC(F)(F)F)ccc(Cl)c1F (stereo not shown) [Example Q6] — 4.5-fold higher, 10.4 nM
- Cn1ncnc1-c1cnn(C(CCOC(F)F)c2ccc(-c3c(-n4cc(OC(F)F)nn4)ccc(Cl)c3F)c[n+]2[O-])c1 (stereo not shown) [Example P801] — 37-fold higher, 84.1 nM
- [O-][n+]1cc(-c2c(-n3cnnn3)ccc(Cl)c2F)ccc1C(Cn1cc(-c2ccccn2)cn1)n1cc(-c2ccccn2)cn1 (single isomer, unassigned) [Example P515] — 63-fold higher, 144 nM
- [2H]C([2H])([2H])OC([2H])([2H])CC(c1ccc(-c2c(-n3cc(C(F)(F)F)nn3)ccc(Cl)c2F)c[n+]1[O-])n1cc(-c2ncnn2C)cn1 (single isomer, unassigned) [Example P864] — 240-fold higher, 549 nM
- COc1cc(C(CC2CC2C(=O)N2CCCCC2)n2cc(-c3ccc(N)nc3C)cn2)[n+]([O-])cc1-c1c(-n2cnnn2)ccc(Cl)c1F (stereo not shown) [Example P248] — 6.5-fold higher, 14.9 nM
- CN(CC(c1ccc(-c2c(-n3cnnn3)ccc(Cl)c2F)c[n+]1[O-])n1cc(-c2ccncc2)cn1)OC(F)(F)F (stereo not shown) [Example P323] — 10-fold higher, 23 nM
- O=C(O)c1ccc(-c2cnn(C(CC3CC3C(=O)N3CCC(c4ccccc4)C3)c3ccc(-c4c(-n5cnnn5)ccc(Cl)c4F)c[n+]3[O-])c2)cc1 (stereo not shown) [Example P175] — 160-fold higher, 365 nM
- [O-][n+]1cc(-c2c(-n3cnnn3)ccc(Cl)c2F)ccc1C(Cn1cc(F)cn1)n1cc(-c2ccnc(C(F)(F)F)c2)cn1 (stereo not shown) [Example P332] — 26-fold higher, 59.5 nM
- COC(=O)Nc1ccc(-c2cnn(C(Cc3ccn(C)n3)c3ccc(-c4c(-n5cnnn5)ccc(Cl)c4F)c[n+]3[O-])c2)cc1 (single isomer, unassigned) [Example P330] — within 1.5-fold, 3.3 nM
- CN(CC(c1ccc(-c2c(-n3cnnn3)ccc(Cl)c2F)c[n+]1[O-])n1cc(-c2ccnc(C(F)(F)F)c2)cn1)C(=O)C1CC1 (single isomer, unassigned) [Example P425] — 250-fold higher, 572 nM
- NC(=O)C1CC1CC(c1ccc(-c2c(-n3cnnn3)ccc(Cl)c2F)c[n+]1[O-])n1cc(-c2cc[n+]([O-])cc2)cn1 (single isomer, unassigned) [Example P282] — 340-fold higher, 775 nM
- COC(=O)Nc1ccc(-c2cnn(C(Cc3ccn(C)n3)c3ccc(-c4c(-n5cnnn5)ccc(Cl)c4F)c[n+]3[O-])c2)cc1 (single isomer, unassigned) [Example P329] — 22-fold higher, 49.6 nM
- [O-][n+]1cc(-c2c(-n3cc(Cl)nn3)ccc(Cl)c2F)ccc1[C@@H](Cn1cc(OC(F)F)cn1)n1cc(-c2cn(C(F)F)nn2)cn1 [Example P655] — 320-fold higher, 734 nM
- Cn1nncc1-c1cnn([C@H](Cc2ccn(C(F)F)n2)c2ccc(-c3c(-n4cc(C(F)(F)F)nn4)ccc(Cl)c3F)c[n+]2[O-])c1 [Example P792] — 33-fold higher, 76.2 nM
- COC(=O)Nc1ccc(-c2cnn(C(CC3CCCCO3)c3ccc(-c4c(-n5cnnn5)ccc(Cl)c4F)c[n+]3[O-])c2)cc1 (stereo not shown) [Example P220] — 6-fold higher, 13.9 nM
- COC(=O)Nc1ccc(-c2cnn(C(Cc3ccc(Cl)cc3)c3ccc(-c4c(-n5cnnn5)ccc(Cl)c4F)c[n+]3[O-])c2)cc1 (single isomer, unassigned) [Example P160] — 3-fold higher, 7 nM
- NC(=O)c1ccc(-c2cnn(C(Cc3ccn(C(F)F)n3)c3ccc(-c4c(-n5cc(C(F)(F)F)nn5)ccc(Cl)c4F)c[n+]3[O-])c2)cc1F (stereo not shown) [Example P892] — within 1.5-fold, 2.9 nM
- COC(=O)Nc1ccc(-c2cnn(C(Cn3ccccc3=O)c3ccc(-c4c(-n5cnnn5)ccc(Cl)c4F)c[n+]3[O-])c2)cc1 (stereo not shown) [Example P305] — 2.4-fold higher, 5.5 nM
- O=C(O)c1ccc(-c2cnn(C(CC3CC3C(=O)N3CCCC3)c3ccc(-c4cc(Cl)ccc4-n4cnnn4)c[n+]3[O-])c2)cc1 (stereo not shown) [Example P106] — 280-fold higher, 635 nM
- CN(C)C(=O)CC(c1ccc(-c2c(-n3cc(C(F)(F)F)nn3)ccc(Cl)c2F)c[n+]1[O-])n1cc(-c2ccc(C(N)=O)c(F)c2)cn1 (stereo not shown) [Example P884] — 27-fold higher, 61.3 nM
- O=C(C1CC1CC(c1ccc(-c2c(-n3cnnn3)ccc(Cl)c2F)c[n+]1[O-])n1cc(-c2ccncc2)cn1)N1CCCCC1 (stereo not shown) [Example P252] — 270-fold higher, 617 nM
- Cn1cncc1-c1cnn(C(Cn2cc(F)cn2)c2ccc(-c3c(-n4cnnn4)ccc(Cl)c3F)c[n+]2[O-])c1 (stereo not shown) [Example P502] — 13-fold higher, 30.1 nM
- Cn1ccc(C[C@H](c2ccc(-c3c(-n4cc(C(F)(F)F)nn4)ccc(Cl)c3F)c[n+]2[O-])n2cc(-c3ccc(C(=O)O)cc3)cn2)n1 [Example P855] — 1.6-fold higher, 3.7 nM
- CC(C)n1ccc(C[C@@H](c2ccc(-c3c(-n4cnnn4)ccc(Cl)c3F)c[n+]2[O-])n2cc(-c3ccnc(C(F)(F)F)c3)cn2)n1 [Example P651] — 130-fold higher, 307 nM
- Cn1nnc(Cl)c1-c1cnn([C@H](CCOC(F)F)c2ccc(-c3c(-n4cnnn4)ccc(Cl)c3F)c[n+]2[O-])c1 [Example P726] — 3.3-fold higher, 7.7 nM
- COc1ccc(CC(c2ccc(-c3c(-n4cnnn4)ccc(Cl)c3F)c[n+]2[O-])n2cc(-c3ccn(C)c(=O)c3)cn2)cc1 (stereo not shown) [Example P134] — 3.1-fold higher, 7.1 nM
- NC(=O)COc1ccc(CC(c2ccc(-c3cc(Cl)ccc3-n3cnnn3)c[n+]2[O-])n2cc(-c3ccc(C(=O)O)cc3)cn2)cc1 (stereo not shown) [Example P138] — 1.8-fold higher, 4.1 nM
- O=C1CCCN1CC(c1ccc(-c2c(-n3cnnn3)ccc(Cl)c2F)c[n+]1[O-])n1cc(-c2ccnc(F)c2)cn1 (single isomer, unassigned) [Example P382] — 3.2-fold higher, 7.3 nM
- NC(=O)c1ccn(CC(c2ccc(-c3c(-n4cnnn4)ccc(Cl)c3F)c[n+]2[O-])n2cc(-c3ccnc(C(F)(F)F)c3)cn2)n1 (single isomer, unassigned) [Example P448] — 4.1-fold higher, 9.4 nM
- [O-][n+]1ccc(-c2cnn(C(Cn3cc(F)cn3)c3ccc(-c4c(-n5cnnn5)ccc(Cl)c4F)c[n+]3[O-])c2)cc1 (stereo not shown) [Example P360] — 16-fold higher, 36.6 nM
- COCC[C@H](c1ccc(-c2c(-n3cnnn3)ccc(Cl)c2F)c[n+]1[O-])n1cc(-c2ccn(C(F)F)n2)cn1 [Example P560] — 44-fold higher, 102 nM
- COc1cc(C(CC2CC2)n2cc(-c3ccnn3C)cn2)[n+]([O-])cc1-c1c(-n2cnnn2)ccc(Cl)c1F (single isomer, unassigned) [Example P490] — 7.1-fold higher, 16.3 nM
- O=C(O)c1ccc(-c2cnn(C(c3cn(C4CCNCC4)nn3)c3ccc(-c4c(-n5cnnn5)ccc(Cl)c4F)c[n+]3[O-])c2)cc1 (stereo not shown) [Example P52] — 3400-fold higher, 7710 nM
- COCCC(c1ccc(-c2c(-n3cnnn3)ccc(Cl)c2F)c[n+]1[O-])n1cc(-c2ccc(NC(=O)OC)cc2)cn1 (single isomer, unassigned) [Example P84] — 6.3-fold higher, 14.5 nM
- [O-][n+]1cc(-c2c(-n3cnnn3)ccc(Cl)c2F)ccc1[C@@H](Cc1ccc(C(F)(F)F)nc1)n1cc(-c2ncnn2C(F)F)cn1 [Example P783] — 8.2-fold higher, 18.9 nM
- [O-][n+]1cc(-c2c(-n3cnnn3)ccc(Cl)c2F)ccc1C(Cc1ccc(F)cc1)n1cc(-c2ccncc2)cn1 (single isomer, unassigned) [Example P235] — 1.6-fold lower, 1.4 nM
- [O-][n+]1cc(-c2c(-n3cnnn3)ccc(Cl)c2F)ccc1[C@@H](Cc1nccs1)n1cc(-c2ccnn2C(F)F)cn1 [Example P718] — 4.8-fold higher, 11.1 nM
- COc1ccc(CC(c2ccc(-c3c(-n4cnnn4)ccc(Cl)c3F)c[n+]2[O-])n2cc(-c3ccc(C(=O)NC4CC4)cc3)cn2)cc1 (stereo not shown) [Example P135] — 4.7-fold higher, 10.8 nM
- COCCC(c1ccc(-c2c(-n3cnnn3)ccc(Cl)c2F)c[n+]1[O-])n1cc(C2CCN(C(=O)OC)CC2)cn1 (stereo not shown) [Example P166] — 400-fold higher, 923 nM
- [O-][n+]1cc(-c2c(-n3cnnn3)ccc(Cl)c2F)ccc1C(Cc1ccc(C(F)(F)F)nc1)n1cc(-c2ccnn2C(F)F)cn1 (stereo not shown) [Example P753] — 24-fold higher, 54.3 nM
- Nc1ncc(-c2cnn(C(Cc3ccc(Cl)cc3)c3ccc(-c4c(-n5cnnn5)ccc(Cl)c4F)c[n+]3[O-])c2)cc1F (stereo not shown) [Example P162] — 3-fold higher, 6.8 nM
- COC(=O)Nc1ccc(-c2cnn(C(CCOC(F)F)c3ccc(-c4c(-n5cnnn5)ccc(Cl)c4F)c[n+]3[O-])c2)cc1 (stereo not shown) [Example P226] — within 1.5-fold, 3 nM
- Cc1cc(-c2cnn(C(CCOC(F)F)c3ccc(-c4c(-n5cnnn5)ccc(Cl)c4F)c[n+]3[O-])c2)ccn1 (stereo not shown) [Example P307] — 3.3-fold higher, 7.7 nM
- O=C(NC1CC1)c1ccc(-c2cnn(C(Cc3ccc(F)cc3)c3ccc(-c4cc(Cl)ccc4-n4cnnn4)c[n+]3[O-])c2)cc1 (stereo not shown) [Example P55] — 2.3-fold higher, 5.4 nM
- NC(=O)c1ccc(-c2cnn(C(Cc3ccn(C(F)F)n3)c3ccc(-c4c(-n5cc(C(F)(F)F)nn5)ccc(Cl)c4F)c[n+]3[O-])c2)cc1 (single isomer, unassigned) [Example P907] — 31-fold higher, 70.4 nM
- [O-][n+]1cc(-c2c(-n3cnnn3)ccc(Cl)c2F)ccc1C(Cn1cccn1)n1cc(-c2ccnc(F)c2)cn1 (stereo not shown) [Example P309] — 4-fold higher, 9.2 nM
- O=C(O)c1ccc(-c2cnn(C(CN3CCCC3=O)c3ccc(-c4c(C(F)F)ccc(Cl)c4F)c[n+]3[O-])c2)cc1 (single isomer, unassigned) [Example Q15] — 170-fold higher, 382 nM
- [O-][n+]1cc(-c2c(-n3cnnn3)ccc(Cl)c2F)ccc1[C@@H](CC1CC1)n1cc(-c2ncnn2C(F)F)cn1 [Example P762] — 110-fold higher, 249 nM
- [O-][n+]1cc(-c2c(-n3cnnn3)ccc(Cl)c2F)ccc1C(CC1CC1)n1cc(-c2ccncc2)cn1 (stereo not shown) [Example P187] — 54-fold higher, 124 nM
- CC(C)c1cc(-c2cnn(C(Cn3cc(F)cn3)c3ccc(-c4c(-n5cnnn5)ccc(Cl)c4F)c[n+]3[O-])c2)ccn1 (stereo not shown) [Example P393] — 16-fold higher, 36.6 nM
- CN(CC(c1ccc(-c2c(-n3cnnn3)ccc(Cl)c2F)c[n+]1[O-])n1cc(-c2ccnc(C(F)(F)F)c2)cn1)C(=O)c1ccn(C)c(=O)c1 (single isomer, unassigned) [Example P435] — 4.2-fold higher, 9.7 nM
